Test results published in ChEMBL document CHEMBL3885881, “DrugMatrix”.

Species on record: Rattus norvegicus
Assay: DrugMatrix - Regimen: Daily Repeat
Format: toxicity, organism-based, Sprague-Dawley
Set-up: regimen Daily Repeat, gender Male, age 6-8 weeks
Settings: in vivo, po, 0 mg/kg, route oral GAVAGE, dose level Control, vehicle .5 % CMC; for ABSOLUTE BASOPHIL / ABSOLUTE EOSINOPHIL / ABSOLUTE LYMPHOCYTE / ABSOLUTE MONOCYTE / ABSOLUTE SEGMENTED NEUTROPHIL / BASOPHIL / EOSINOPHIL / ERYTHROCYTE COUNT / HEMATOCRIT / HEMOGLOBIN / LEUKOCYTE COUNT / LYMPHOCYTE / MEAN CORPUSCULAR HEMOGLOBIN / MEAN CORPUSCULAR HEMOGLOBIN CONCENTRATION / MEAN CORPUSCULAR VOLUME / MONOCYTE / NEUTROPHIL / NUCLEATED RED BLOOD CELLS / PLATELET COUNT: tissue Blood; for ALANINE AMINOTRANSFERASE / ALBUMIN / ALKALINE PHOSPHATASE / ASPARTATE AMINOTRANSFERASE / BLOOD UREA NITROGEN / CARBON DIOXIDE / CHLORIDE / CHOLESTEROL / CREATININE / GLUCOSE / LACTATE DEHYDROGENASE / LIPASE / PHOSPHORUS / POTASSIUM / SODIUM / TOTAL BILIRUBIN / TOTAL PROTEIN / URIC ACID: tissue Plasma

Compound: COc1ccccc1[N+](=O)[O-] [2-NITROANISOLE]
- ABSOLUTE BASOPHIL (72 h, time 3 day): 0 CELLS/uL
- ABSOLUTE EOSINOPHIL (72 h, time 3 day): 279.83 CELLS/uL
- ABSOLUTE LYMPHOCYTE (72 h, time 3 day): 13152.5 CELLS/uL
- ABSOLUTE MONOCYTE (72 h, time 3 day): 1013.83 CELLS/uL
- ABSOLUTE SEGMENTED NEUTROPHIL (72 h, time 3 day): 2420.5 CELLS/uL
- BASOPHIL (72 h, time 3 day): 0%
- EOSINOPHIL (72 h, time 3 day): 1.67%
- ERYTHROCYTE COUNT (72 h, time 3 day): 5.26 x10E6/uL
- HEMATOCRIT (72 h, time 3 day): 32.22%
- HEMOGLOBIN (72 h, time 3 day): 12.02 G/DL
- LEUKOCYTE COUNT (72 h, time 3 day): 16.87 x10E3/uL
- LYMPHOCYTE (72 h, time 3 day): 77.83%
- MEAN CORPUSCULAR HEMOGLOBIN (72 h, time 3 day): 22.93 pg
- MEAN CORPUSCULAR HEMOGLOBIN CONCENTRATION (72 h, time 3 day): 37.32 G/DL
- MEAN CORPUSCULAR VOLUME (72 h, time 3 day): 61.4 fL
- MONOCYTE (72 h, time 3 day): 6%
- NEUTROPHIL (72 h, time 3 day): 14.5%
- NUCLEATED RED BLOOD CELLS (72 h, time 3 day): 0 /100WBC
- PLATELET COUNT (72 h, time 3 day): 1122.17 x10E3/uL
- ALANINE AMINOTRANSFERASE (72 h, time 3 day): 55.67 u/L
- ALBUMIN (72 h, time 3 day): 4.35 G/DL
- ALKALINE PHOSPHATASE (72 h, time 3 day): 362.67 u/L
- ASPARTATE AMINOTRANSFERASE (72 h, time 3 day): 96 u/L
- BLOOD UREA NITROGEN (72 h, time 3 day): 18 mg/dL
- CARBON DIOXIDE (72 h, time 3 day): 27.5 mmol/L
- CHLORIDE (72 h, time 3 day): 100.17 MEQ/L
- CHOLESTEROL (72 h, time 3 day): 74.5 mg/dL
- CREATININE (72 h, time 3 day): 0.17 mg/dL
- GLUCOSE (72 h, time 3 day): 141.67 mg/dL
- LACTATE DEHYDROGENASE (72 h, time 3 day): 682.5 u/L
- LIPASE (72 h, time 3 day): 10 u/L
- PHOSPHORUS (72 h, time 3 day): 11.5 mg/dL
- POTASSIUM (72 h, time 3 day): 6.41 MEQ/L
- SODIUM (72 h, time 3 day): 141.2 MEQ/L
- TOTAL BILIRUBIN (72 h, time 3 day): 0.18 mg/dL
- TOTAL PROTEIN (72 h, time 3 day): 5.88 G/DL
- URIC ACID (72 h, time 3 day): 1.4 mg/dL
- ABSOLUTE BASOPHIL (120 h, time 5 day): 0 CELLS/uL
- ABSOLUTE EOSINOPHIL (120 h, time 5 day): 18.5 CELLS/uL
- ABSOLUTE LYMPHOCYTE (120 h, time 5 day): 8146.83 CELLS/uL
- ABSOLUTE MONOCYTE (120 h, time 5 day): 204.83 CELLS/uL
- ABSOLUTE SEGMENTED NEUTROPHIL (120 h, time 5 day): 1329.83 CELLS/uL
- BASOPHIL (120 h, time 5 day): 0%
- EOSINOPHIL (120 h, time 5 day): 0.17%
- ERYTHROCYTE COUNT (120 h, time 5 day): 5.37 x10E6/uL
- HEMATOCRIT (120 h, time 5 day): 33.17%
- HEMOGLOBIN (120 h, time 5 day): 12.07 G/DL
- LEUKOCYTE COUNT (120 h, time 5 day): 9.7 x10E3/uL
- LYMPHOCYTE (120 h, time 5 day): 85.33%
- MEAN CORPUSCULAR HEMOGLOBIN (120 h, time 5 day): 22.52 pg
- MEAN CORPUSCULAR HEMOGLOBIN CONCENTRATION (120 h, time 5 day): 36.42 G/DL
- MEAN CORPUSCULAR VOLUME (120 h, time 5 day): 61.78 fL
- MONOCYTE (120 h, time 5 day): 1.83%
- NEUTROPHIL (120 h, time 5 day): 12.67%
- NUCLEATED RED BLOOD CELLS (120 h, time 5 day): 0 /100WBC
- PLATELET COUNT (120 h, time 5 day): 907.5 x10E3/uL
- ALANINE AMINOTRANSFERASE (120 h, time 5 day): 58.5 u/L
- ALBUMIN (120 h, time 5 day): 4.4 G/DL
- ALKALINE PHOSPHATASE (120 h, time 5 day): 377.67 u/L
- ASPARTATE AMINOTRANSFERASE (120 h, time 5 day): 140.33 u/L
- BLOOD UREA NITROGEN (120 h, time 5 day): 15.33 mg/dL
- CARBON DIOXIDE (120 h, time 5 day): 32.17 mmol/L
- CHLORIDE (120 h, time 5 day): 100 MEQ/L
- CHOLESTEROL (120 h, time 5 day): 71.83 mg/dL
- CREATININE (120 h, time 5 day): 0.18 mg/dL
- GLUCOSE (120 h, time 5 day): 185 mg/dL
- LACTATE DEHYDROGENASE (120 h, time 5 day): 241.5 u/L
- LIPASE (120 h, time 5 day): 9.5 u/L
- PHOSPHORUS (120 h, time 5 day): 13.02 mg/dL
- POTASSIUM (120 h, time 5 day): 6.45 MEQ/L
- SODIUM (120 h, time 5 day): 143.45 MEQ/L
- TOTAL BILIRUBIN (120 h, time 5 day): 0.22 mg/dL
- TOTAL PROTEIN (120 h, time 5 day): 6.1 G/DL
- URIC ACID (120 h, time 5 day): 1 mg/dL
- ABSOLUTE BASOPHIL ([…], time 14 day): 0 CELLS/uL
- ABSOLUTE EOSINOPHIL ([…], time 14 day): 117.17 CELLS/uL
- ABSOLUTE LYMPHOCYTE ([…], time 14 day): 13562 CELLS/uL
- ABSOLUTE MONOCYTE ([…], time 14 day): 534.83 CELLS/uL
- ABSOLUTE SEGMENTED NEUTROPHIL ([…], time 14 day): 2486 CELLS/uL
- BASOPHIL ([…], time 14 day): 0%
- EOSINOPHIL ([…], time 14 day): 0.83%
- ERYTHROCYTE COUNT ([…], time 14 day): 6.14 x10E6/uL
- HEMATOCRIT ([…], time 14 day): 36.87%
- HEMOGLOBIN ([…], time 14 day): 13.87 G/DL
- LEUKOCYTE COUNT ([…], time 14 day): 16.7 x10E3/uL
- LYMPHOCYTE ([…], time 14 day): 81%
- MEAN CORPUSCULAR HEMOGLOBIN ([…], time 14 day): 22.63 pg
- MEAN CORPUSCULAR HEMOGLOBIN CONCENTRATION ([…], time 14 day): 37.62 G/DL
- MEAN CORPUSCULAR VOLUME ([…], time 14 day): 60.15 fL
- MONOCYTE ([…], time 14 day): 3.17%
- NEUTROPHIL ([…], time 14 day): 15%
- NUCLEATED RED BLOOD CELLS ([…], time 14 day): 0 /100WBC
- PLATELET COUNT ([…], time 14 day): 974.83 x10E3/uL
- ALANINE AMINOTRANSFERASE ([…], time 14 day): 52.33 u/L
- ALBUMIN ([…], time 14 day): 4.48 G/DL
- ALKALINE PHOSPHATASE ([…], time 14 day): 346.17 u/L
- ASPARTATE AMINOTRANSFERASE ([…], time 14 day): 81 u/L
- BLOOD UREA NITROGEN ([…], time 14 day): 15.67 mg/dL
- CARBON DIOXIDE ([…], time 14 day): 34.33 mmol/L
- CHLORIDE ([…], time 14 day): 100.17 MEQ/L
- CHOLESTEROL ([…], time 14 day): 70.83 mg/dL
- CREATININE ([…], time 14 day): 0.22 mg/dL
- GLUCOSE ([…], time 14 day): 141.17 mg/dL
- LACTATE DEHYDROGENASE ([…], time 14 day): 121.33 u/L
- LIPASE ([…], time 14 day): 8.33 u/L
- PHOSPHORUS ([…], time 14 day): 9.97 mg/dL
- POTASSIUM ([…], time 14 day): 6.4 MEQ/L
- SODIUM ([…], time 14 day): 143.72 MEQ/L
- TOTAL BILIRUBIN ([…], time 14 day): 0.22 mg/dL
- TOTAL PROTEIN ([…], time 14 day): 6.45 G/DL
- URIC ACID ([…], time 14 day): 1.25 mg/dL
